System: SEM cells
Assay: cell viability relative to DMSO control; higher = less cytotoxic
Details: 48 h
Outline: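 Viability values are per-plate percentages of DMSO wells, with background from cell-free wells. Library compounds in DMSO were pin-dosed, in an 11-point threefold series from 47 μM to 0.79 nM, onto NOMO1 or SEM (500 cells/well) or P12-Ichikawa (1000 cells/well) leukemia cells in 1536-well plates (5 μl). Those cells had been adapted for at least four passages in each medium, and CellTiter-Glo One luminescence was read after 48 h at 37°C.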

[1] = HPLM + 10% dialyzed FBS, 0.000781 µM
[2] = HPLM + 10% dialyzed FBS, 0.00234 µM
[3] = HPLM + 10% dialyzed FBS, 0.00702 µM
[4] = HPLM + 10% dialyzed FBS, 0.0211 µM
[5] = HPLM + 10% dialyzed FBS, 0.0632 µM
[6] = HPLM + 10% dialyzed FBS, 0.19 µM
[7] = HPLM + 10% dialyzed FBS, 0.569 µM
[8] = HPLM + 10% dialyzed FBS, 1.71 µM
[9] = HPLM + 10% dialyzed FBS, 5.12 µM
[10] = HPLM + 10% dialyzed FBS, 15.4 µM
[11] = HPLM + 10% dialyzed FBS, 46.1 µM
[12] = RPMI 5 mM glucose + 10% FBS, 0.000781 µM
[13] = RPMI 5 mM glucose + 10% FBS, 0.00234 µM
[14] = RPMI 5 mM glucose + 10% FBS, 0.00702 µM
[15] = RPMI 5 mM glucose + 10% FBS, 0.0211 µM
[16] = RPMI 5 mM glucose + 10% FBS, 0.0632 µM
[17] = RPMI 5 mM glucose + 10% FBS, 0.19 µM
[18] = RPMI 5 mM glucose + 10% FBS, 0.569 µM
[19] = RPMI 5 mM glucose + 10% FBS, 1.71 µM
[20] = RPMI 5 mM glucose + 10% FBS, 5.12 µM
[21] = RPMI 5 mM glucose + 10% FBS, 15.4 µM
[22] = RPMI 5 mM glucose + 10% FBS, 46.1 µM
[23] = RPMI 5 mM glucose + 10% dialyzed FBS, 0.000781 µM
[24] = RPMI 5 mM glucose + 10% dialyzed FBS, 0.00234 µM
[25] = RPMI 5 mM glucose + 10% dialyzed FBS, 0.00702 µM
[26] = RPMI 5 mM glucose + 10% dialyzed FBS, 0.0211 µM
[27] = RPMI 5 mM glucose + 10% dialyzed FBS, 0.0632 µM
[28] = RPMI 5 mM glucose + 10% dialyzed FBS, 0.19 µM
[29] = RPMI 5 mM glucose + 10% dialyzed FBS, 0.569 µM
[30] = RPMI 5 mM glucose + 10% dialyzed FBS, 1.71 µM
[31] = RPMI 5 mM glucose + 10% dialyzed FBS, 5.12 µM
[32] = RPMI 5 mM glucose + 10% dialyzed FBS, 15.4 µM
[33] = RPMI 5 mM glucose + 10% dialyzed FBS, 46.1 µM

Structure (SMILES) | cell viability [1] [%] | cell viability [2] [%] | cell viability [3] [%] | cell viability [4] [%] | cell viability [5] [%] | cell viability [6] [%] | cell viability [7] [%] | cell viability [8] [%] | cell viability [9] [%] | cell viability [10] [%] | cell viability [11] [%] | cell viability [12] [%] | cell viability [13] [%] | cell viability [14] [%] | cell viability [15] [%] | cell viability [16] [%] | cell viability [17] [%] | cell viability [18] [%] | cell viability [19] [%] | cell viability [20] [%] | cell viability [21] [%] | cell viability [22] [%] | cell viability [23] [%] | cell viability [24] [%] | cell viability [25] [%] | cell viability [26] [%] | cell viability [27] [%] | cell viability [28] [%] | cell viability [29] [%] | cell viability [30] [%] | cell viability [31] [%] | cell viability [32] [%] | cell viability [33] [%]
CCCCCCCCCCCCCCCCCCCCCCO | 104 | 95 | 119 | 116 | 110 | 110 | 111 | 127 | 87.8 | 123 | 132 | 122 | 113 | 135 | 133 | 129 | 146 | 153 | 156 | 98.4 | 138 | 155 | 102 | 98.1 | 120 | 123 | 118 | 115 | 118 | 132 | 87 | 116 | 138
COC1=NC(=NC(=C1N\C2=N\CCN2)Cl)C | 71.4 | 88.7 | 47.6 | 91.8 | 99.9 | 94.1 | 114 | 102 | 44.4 | 108 | 100 | 81 | 79.3 | 45 | 84 | 79.6 | 83.5 | 106 | 81.9 | 34.1 | 103 | 99.2 | 74.6 | 80 | 46.6 | 102 | 104 | 104 | 101 | 101 | 49.6 | 98.7 | 113
CC(C)n1nc(-c2cc3cc(O)ccc3[nH]2)c2c(N)ncnc21 | 93.3 | 104 | 111 | 94.3 | 81 | 84.4 | 45.2 | 52.9 | 25.9 | 16.7 | 6.97 | 106 | 107 | 114 | 136 | 108 | 85.4 | 66.3 | 66 | 38 | 23.6 | 8.3 | 90.8 | 99.4 | 92.4 | 87.7 | 94.8 | 87.6 | 48.7 | 52.4 | 35.4 | 20.9 | 6.33
CC(=O)Nc1ccc(OC[C@](C)(O)C(=O)Nc2ccc([N+](=O)[O-])c(C(F)(F)F)c2)cc1 | 67.5 | 59.4 | 69 | 75.9 | 68.9 | 72.8 | 77.1 | 84 | 83.4 | 82.3 | 54.8 | 81.6 | 78.3 | 77.8 | 103 | 80.8 | 80.2 | 88.8 | 90.4 | 81.8 | 93.7 | 44.7 | 79.9 | 79 | 84.8 | 108 | 86.7 | 97.5 | 88.7 | 93.8 | 71 | 91.7 | 48
O=NN(CCCl)C(=O)NCCCl | 75.9 | 89 | 117 | 86.6 | 100 | 121 | 107 | 121 | 94.1 | 110 | 85.8 | 85.4 | 105 | 104 | 110 | 121 | 119 | 119 | 125 | 129 | 118 | 102 | 80.1 | 88.3 | 100 | 87.4 | 113 | 108 | 102 | 117 | 111 | 107 | 84.3
C[C@]12CC[C@@H]3c4ccc(OC(=O)N(CCCl)CCCl)cc4CC[C@H]3[C@@H]1CC[C@@H]2OP(=O)([O-])[O-].[Na+].[Na+] | 107 | 107 | 120 | 109 | 106 | 105 | 104 | 108 | 66.8 | 62.5 | 63.2 | 101 | 118 | 120 | 99.2 | 118 | 115 | 87.9 | 90.5 | 68.1 | 65.4 | 27.5 | 111 | 112 | 102 | 85.3 | 110 | 93.9 | 83.4 | 76.3 | 67.5 | 65.3 | 54.9
OC(=O)C1=CC=C(NC2=NC3=C(C\N=C(/C4=CC(=CC=C34)Cl)C5=C(F)C=CC=C5F)C=N2)C=C1 | 88.5 | 98.5 | 87.5 | 97.9 | 101 | 96 | 114 | 65.8 | 59.7 | 36.9 | 40.3 | 96 | 93 | 113 | 99.9 | 109 | 91 | 109 | 60.2 | 37.3 | 28.4 | 23.2 | 88.6 | 98.5 | 86 | 105 | 90.8 | 95.7 | 107 | 58.6 | 39 | 28.4 | 32.2
CC(N[C@H]1C[C@@H]1c1ccccc1)c1ccc2c(c1)OCCO2 (some centres undefined) | 111 | 135 | 116 | 122 | 110 | 122 | 126 | 126 | 141 | 116 | 109 | 99.3 | 95.1 | 94.7 | 97.7 | 107 | 100 | 108 | 110 | 107 | 98.4 | 93.5 | 121 | 123 | 100 | 121 | 110 | 134 | 138 | 111 | 119 | 119 | 92.6

From the supplement of paper PMC11451515
